In ChEMBL document CHEMBL3745694, “Total synthesis and cytotoxic activities of longamide B, longamide B methyl ester, hanishin, and their analogues” (Bioorg Med Chem Lett, 2016):
pIC50: −log10 of the molar value.

Key:
A549 = test: Cytotoxicity against human A549 cells after 72 hrs by CCK-8 assay; type: functional, cell-based; conditions: A549, 72 h
[1] = Cytotoxicity against human PC3 cells after 72 hrs by CCK-8 assay; type: functional, cell-based; conditions: PC-3, 72 h

Row | Compound | pIC50 (A549) | pIC50 [1]
1 | O=C(O)CC1CNC(=O)c2ccc(Br)n21 (configuration not stated) | < 3.70 | < 3.70
2 | CCOC(=O)CC1CNC(=O)c2cc(Br)c(Br)n21 (racemic) | 4.39 | 4.41
3 | COC(=O)CC1CNC(=O)c2cc(Br)c(Br)n21 (racemic) | 4.09 | 4.10
4 | COC(=O)CC1CNC(=O)c2cccn21 (configuration not stated) | < 3.70 | < 3.70
5 | O=C(O)CC1CNC(=O)c2cc(Br)c(Br)n21 (racemic) | < 3.70 | < 3.70
6 | COC(=O)CC1CNC(=O)c2ccc(Br)n21 (configuration not stated) | 4.19 | 4.15
7 | COC(=O)Cc1c[nH]c(=O)c2ccc(Br)n12 | 3.78 | 3.75
8 | COC(=O)Cc1c[nH]c(=O)c2cc(Br)c(Br)n12 | < 3.70 | < 3.70
9 | CCOC(=O)CC1CNC(=O)c2ccc(Br)n21 (configuration not stated) | 4.49 | 4.54
10 | CO[C@@]12[C@H](COC(N)=O)C3=C(C(=O)C(C)=C(N)C3=O)N1C[C@@H]1N[C@@H]12 [MITOMYCIN] | 5.77 | 5.85
11 | COC(=O)Cc1c[nH]c(=O)c2cccn12 | < 3.70 | < 3.70
